Earlier results as cited in patent US20120231996A1, “Phalloidin derivatives and methods for their synthesis” (priority 2006, published 2012).
Numbered stars: 1 amine (or outer) side, 2 acyl side, 3 side chain; on linkers, the order of the positions; unused ones are H or OH. Bridge positions count the residues as written; N and C are the ends. Square brackets hold non-standard residues; d marks the D form. Peptide text beside a SMILES is read from it. Trp(2-yl) = O=C([C@H](Cc1c([*:3])[nH]c2ccccc12)N[*:1])[*:2]; Leu(4R-OH,5-OH) = C[C@](O)(CO)C[C@H](N)C(=O)O; cisHyp = O=C(O)[C@@H]1C[C@H](O)CN1

Legend:
[1] = tested on: actin; conditions: in solution
[2] = tested on: filamentous actin (F-actin)

## C[C@@H]1NC(=O)[C@H](C[C@@](C)(O)CO)NC(=O)[C@@H]2Cc3c([nH]c4ccccc34)SC[C@H](NC(=O)[C@@H]([C@H](C)O)NC1=O)C(=O)N1C[C@@H](O)C[C@H]1C(=O)N[C@@H](C)C(=O)N2 [Phalloidin] (cyclo(A[dT]C[cisHyp]A[Trp(2-yl)][Leu(4R-OH,5-OH)]); thioether 3-6)
[1]
  Effect on critical concentration of actin polymerization: lowers the critical concentration of actin polymerization
[2]
  Affinity of binding to filamentous actin: binds with high affinity
